From US10899764B2, “Imidazo isoindole derivative, preparation method therefor and medical use thereof” (Jiangsu Hengrui Medicine Co., Ltd., priority 2015, dated 2021)
Structures can show the parent of a compound that is named as a salt.

Key:
[1] = Pharmacokinetics assay in SD rats after intragastrical administration; format: in vivo; settings: both sexes, Sprague-Dawley, rat, plasma, po, intragastric, 10 mg/kg
Experimental: Sprague-Dawley (SD) rats were used as test animals. […] The pharmacokinetic behavior of the compounds of the present invention was studied and evaluated in rats.
Eight (8) healthy adult SD rats, half male and half female, were purchased from SINO-BRITSH SIPPR/BK LAB. […]
The samples were stored in heparinized test tubes, and centrifuged for 10 minutes at 3,500 rpm to separate blood plasma. The plasma samples were stored at −20° C. The rats were fed 2 hours after administration.
(§1) The concentration of the test compounds in rat plasma after intragastric administration was determined by LC/MS/MS.

human IDO1 = human IDO1 (Homo sapiens (Human), UniProt P14902); assay: Inhibition activity on human IDO1 (enzyme assay, absorbance at 480 nm); format: biochemical; settings: purified recombinant human IDO1, 1 hour at 37° C.; read-out: IC50 for inhibiting the activity of human IDO1
Sequence of human IDO1 (P14902 whole entry): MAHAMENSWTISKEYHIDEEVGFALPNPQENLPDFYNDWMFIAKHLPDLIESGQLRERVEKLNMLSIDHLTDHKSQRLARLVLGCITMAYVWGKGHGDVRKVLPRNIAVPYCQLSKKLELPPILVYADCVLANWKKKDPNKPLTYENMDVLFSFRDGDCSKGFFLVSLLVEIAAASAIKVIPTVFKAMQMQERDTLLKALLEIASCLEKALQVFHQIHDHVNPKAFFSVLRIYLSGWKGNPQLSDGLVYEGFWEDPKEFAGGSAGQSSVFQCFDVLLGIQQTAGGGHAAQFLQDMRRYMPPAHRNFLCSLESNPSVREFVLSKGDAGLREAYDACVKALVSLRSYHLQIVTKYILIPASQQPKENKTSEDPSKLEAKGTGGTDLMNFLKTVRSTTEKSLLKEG
Experimental: Assay for Determining the Inhibition Activity of the Present Compounds on Human IDO1
Human IDO1 activity was tested in vitro by the following method.
This method is used to determine the inhibition effect of the compounds of the present invention on the activity of human IDO1.
The human IDO1 gene was transferred to Pet30a plasmid by gene cloning, and then transferred to competent Escherichia coli Rosseta. The IDO1 gene was scaled-up by culturing in liquid LB (Luria-Bertani) medium [which was prepared per liter according to “Molecular Cloning A Laboratory Manual” (J. Sambrook, D. W. Russell)]). The bacteria were collected and lysed by ultrasonic waves. The purified IDO1 was obtained by eluting from a column.
For testing, 24 μL of enzyme (IDO1) was diluted 100 times with 50 mM KPB to 2400 μL. The concentration of the enzyme solution was 2.6 ng/μL. A 96 well reaction plate (AXYGEN, PCR-96-FLT-C) (hereinafter referred to as the “reaction plate”) was added with the enzyme solution at 24 μL/well. The blank well was added with 24 μL of KPB [Preparation of KPB buffer (50 mM): 6.805 g of KH2PO4 was weighed using an analytical balance, and placed into a 1000 mL beaker, deionized water was added with a measuring cylinder to 900 ml, the pH was adjusted to 6.5 by 1M KOH, then the mixture was introduced into a 1 L measuring cylinder, and water was added to 1 L. It was stored at 4° C.]. Then, 1 μL of a compound or DMSO was added into the corresponding wells in the reaction plate. Preparation of solution A: 200 μL of 500 mM L-sodium ascorbate were added with 1050 μL of KPB, then the mixture was mixed uniformly for 3 seconds at the maximum speed in a turbine mixer. Solution B: 100 μL of 10 mM tryptophan were added with 100 μL of 100,000 unit/mL catalase, 5 μL of 10 mM methylene blue, and 1050 μL of KPB successively, then the mixture was mixed uniformly for 3 seconds at the maximum speed in a turbine mixer. Then, 1200 μL of solution A and 1200 μL of solution B were taken and mixed uniformly for 3 seconds at the maximum speed in a turbine mixer. The mixture was added to the reaction plate at 24 μL/well. The reaction plate was placed in a plate centrifuge and centrifuged for 15 seconds at the maximum speed, so that the reaction liquids converged to the bottom. The reaction mixture was mixed uniformly for 30 seconds on a shaker, and incubated for 1 hour at 37° C. in a constant temperature incubator. In the reaction plate, 30% (W/V) trichloroacetic acid was added at 10 μL/well, then the mixture was incubated for 15 minutes at 65° C. in an incubator. The reaction plate was centrifuged in a centrifuge for 5 minutes at 4700 RPM at room temperature. […] Then, 2% (W/V) 4-(dimethylamino)benzaldehyde/glacial acetic acid solution was added at 40 μL/well, and the mixture was mixed uniformly for 1 minute on a shaker at the maximum speed. After incubation for 2 minutes at room temperature, the absorbance at 480 nm was read on a Synergy HT (BIOTEK) reader.
The inhibition activity of the compounds of the present invention on human IDO1 was tested by the assay described above.

[2] = Pharmacokinetics assay in c57bl/6 mice after intragastric administration; format: in vivo; settings: mouse, plasma, po, female c57bl/6 mice, 3 mg/kg
Experimental: c57bl/6 mice were used as test animals. […] The pharmacokinetic behavior of the compounds of the present invention was studied and evaluated in c57bl/6 mice.
Eighteen (18) female c57bl/6 mice, were purchased from SINO-BRITSH SIPPR/BK LAB. ANIMAL LTD., CO.
The appropriate amount of each test compound was weighed, and added with 0.5% CMC-Na to prepare a 1 mg/mL suspension by an ultrasonic method.
After an overnight fast, 18 female c57bl/6 mice were equally divided into 2 groups, 9 mice per group, and administered the test compounds intragastrically at an administration volume of 0.2 mL/kg.
The samples were stored in heparinized test tubes, and centrifuged for 10 minutes at 3,500 rpm to separate blood plasma. The plasma samples were stored at −20° C.
as §1

[3] = read-out: Apparent Distribution Volume Vz/F
[4] = read-out: Mean Residence Time MRT

Vd/F [2, 3] [L/kg] | AUC ([2]; read-out: Area Under Curve AUC) [ng·h/mL] | CL/F ([2]; read-out: Clearance CLz/F) [mL/min/kg] | half-life ([2]; read-out: Half-Life t½ (converted)) [h] | MRT [2, 4] [h] | Cmax ([2]; read-out: Plasma Conc. Cmax) [ng/mL] | Compound | Vd/F [1, 3] [L/kg] | AUC ([1]; read-out: Area Under Curve AUC) [ng·h/mL] | CL/F ([1]; read-out: Clearance CLz/F) [mL/min/kg] | half-life ([1]; read-out: Half-Life T½ (converted)) [h] | MRT [1, 4] [h] | Cmax ([1]; read-out: Plasma Conc. Cmax) [ng/mL] | IC50 (human IDO1) [nM]
 |  |  |  |  |  | Fc1cccc(N2CCC(C3c4c(F)cccc4-c4cncn43)CC2)c1 (centres unmarked) [Example 3, 6-fluoro-5-(1-(3-fluorophenyl)piperidin-4-yl)-5H-imidazo[5,1-a]isoindole trifluoroacetate] | 14.1 ± 1.72 | 2620 ± 977 | 70.9 ± 26.4 | 2.54 ± 0.91 | 2.72 ± 0.36 | 1070 ± 524 | 71.7
1.28 | 4630 | 10.8 | 2.06 | 1.36 | 1670 | OCCn1cc(-c2ccc(N3CCC([C@H]4c5c(F)cccc5-c5cncn54)CC3)cc2)cn1 [Example 41, (S)-2-(4-(4-(4-(6-fluoro-5H-imidazo[5,1-a]isoindol-5-yl)piperidin-1-yl)phenyl)-1H-pyrazol-1-yl)ethanol] |  |  |  |  |  |  | 9.22
